According to ChEMBL document CHEMBL3425442, “Tetrahydroindazoles as Interleukin-2 Inducible T-Cell Kinase Inhibitors. Part II. Second-Generation Analogues with Enhanced Potency, Selectivity, and Pharmacodynamic Modulation in Vivo” (J Med Chem, 2015):
In brackets after ≈: the same amount, converted by molar mass. Several values for one entry are separate records, joined by “and”; a condition that tells them apart may be missing. Identical values can stand only once.

Experiments:
[1] = physchem; settings: aqueous phosphate buffer, pH 7.4, Kinetic_solubility
Description: Kinetic solubility of the compound in aqueous phosphate buffer at pH 7.4 after 24 hrs by HPLC/CLND method

[2] = test system: Mus musculus; assay: Reduction in serum IL-2 level in C57/Bl6 mouse at 100 mg/kg, ip administered for 1 hr followed by anti-CD3 treatment measured after 1.5 hrs relative to vehicle-treated control; format: functional; parameters: scale not given: the % may be the effect or the level left; settings: route intraperitoneal
[3] = test system: Mus musculus; assay: Reduction in serum IL-2 level in C57/Bl6 mouse at 30 mg/kg, ip administered for 1 hr followed by anti-CD3 treatment measured after 1.5 hrs relative to vehicle-treated control; format: functional; parameters: scale not given: the % may be the effect or the level left; settings: route intraperitoneal
[4] = test system: Mus musculus; assay: Reduction in serum IL-13 level in C57/Bl6 mouse at 30 mg/kg, ip administered for 1 hr followed by anti-CD3 treatment measured after 1.5 hrs relative to vehicle-treated control; format: functional; parameters: scale not given: the % may be the effect or the level left; settings: route intraperitoneal
[5] = Permeability in MDCK cells; format: ADME, cell-based, Canis lupus familiaris; settings: dog, read-out: permeability
[6] = Cytotoxicity against human Jurkat T cells without TCR stimulation assessed as cell viability by ATPlite assay
[7] = 1-octanol-phosphate buffer partition coefficient, log D of the compound at pH 7.4 by UPLC/MS/MS analysis
[8] = test system: Mus musculus; assay: Reduction in serum IL-2 level in C57/Bl6 mouse at 200 mg/kg, ip administered for 1 hr followed by anti-CD3 treatment measured after 1.5 hrs relative to vehicle-treated control; format: functional; settings: route intraperitoneal
[9] = Plasma protein binding in human; format: ADME, cell-free; settings: read-out: PPB (converted)
[10] = Plasma concentration in C57/Bl6 mouse at 200 mg/kg, ip administered for 1 hr followed by anti-CD3 treatment measured at 2.5 hrs; format: ADME, organism-based; parameters: dose 200 mg/kg, route intraperitoneal
[11] = test system: Mus musculus; assay: Reduction in serum IL-13 level in C57/Bl6 mouse at 200 mg/kg, ip administered for 1 hr followed by anti-CD3 treatment measured after 1.5 hrs relative to vehicle-treated control; format: functional; parameters: scale not given: the % may be the effect or the level left; settings: route intraperitoneal
[12] = molecular target: hERG (KCNH2) (Homo sapiens, UniProt Q12809); assay: Inhibition of human ERG at 10 uM by patch clamp assay relative to control
[13] = test system: Mus musculus; assay: Reduction in serum IL-13 level in C57/Bl6 mouse at 100 mg/kg, ip administered for 1 hr followed by anti-CD3 treatment measured after 1.5 hrs relative to vehicle-treated control; format: functional; parameters: scale not given: the % may be the effect or the level left; settings: route intraperitoneal
[14] = test system: Mus musculus; assay: Reduction in serum IL-2 level in ip dosed C57/Bl6 mouse administered for 1 hr followed by anti-CD3 treatment measured after 1.5 hrs; format: functional, organism-based
[15] = test system: Hepatocyte; assay: Cytotoxicity against hepatocytes (unknown origin)
[16] = molecular target: Tyrosine-protein kinase Lck (Homo sapiens, UniProt P06239); assay: Inhibition of LCK (unknown origin)
[17] = molecular target: D(2) dopamine receptor (Homo sapiens) (UniProt P14416); assay: Binding affinity to human dopamine D2S receptor assessed as protein-compound complex at 10 uM relative to control
[18] = molecular target: D(1A) dopamine receptor (Homo sapiens) (UniProt P21728); assay: Binding affinity to human dopamine D1 receptor assessed as protein-compound complex at 10 uM relative to control
[19] = molecular target: Sodium-dependent serotonin transporter (Homo sapiens) (UniProt P31645); assay: Binding affinity to human 5-HT transporter assessed as protein-compound complex at 10 uM relative to control
[20] = molecular target: 5-hydroxytryptamine receptor 2A (Homo sapiens) (UniProt P28223); assay: Binding affinity to human 5HT-2A receptor assessed as protein-compound complex at 10 uM relative to control
[21] = species on record: Homo sapiens; assay: Binding affinity to L-type calcium channel verapamil binding site (unknown origin) assessed as protein-compound complex at 10 uM relative to control
[22] = species on record: Homo sapiens; assay: Selectivity ratio of Ki for LCK (unknown origin) to Ki for GST-tagged recombinant full length human ITK

Sequence of Tyrosine-protein kinase Lck (P06239 whole entry): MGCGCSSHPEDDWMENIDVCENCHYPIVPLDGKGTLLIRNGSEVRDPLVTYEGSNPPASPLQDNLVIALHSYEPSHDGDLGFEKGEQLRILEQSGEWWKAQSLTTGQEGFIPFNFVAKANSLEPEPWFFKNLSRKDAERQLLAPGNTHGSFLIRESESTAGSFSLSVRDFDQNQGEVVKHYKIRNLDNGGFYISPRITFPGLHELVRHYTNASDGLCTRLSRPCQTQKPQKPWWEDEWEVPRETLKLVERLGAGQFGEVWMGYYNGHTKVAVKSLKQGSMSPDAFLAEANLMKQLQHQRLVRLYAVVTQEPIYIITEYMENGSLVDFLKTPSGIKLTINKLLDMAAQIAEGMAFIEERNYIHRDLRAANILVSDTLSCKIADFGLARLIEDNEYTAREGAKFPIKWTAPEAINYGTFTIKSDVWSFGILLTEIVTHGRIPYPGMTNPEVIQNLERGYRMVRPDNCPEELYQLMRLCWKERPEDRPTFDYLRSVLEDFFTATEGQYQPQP
Sequence of hERG (KCNH2) (Q12809 whole entry): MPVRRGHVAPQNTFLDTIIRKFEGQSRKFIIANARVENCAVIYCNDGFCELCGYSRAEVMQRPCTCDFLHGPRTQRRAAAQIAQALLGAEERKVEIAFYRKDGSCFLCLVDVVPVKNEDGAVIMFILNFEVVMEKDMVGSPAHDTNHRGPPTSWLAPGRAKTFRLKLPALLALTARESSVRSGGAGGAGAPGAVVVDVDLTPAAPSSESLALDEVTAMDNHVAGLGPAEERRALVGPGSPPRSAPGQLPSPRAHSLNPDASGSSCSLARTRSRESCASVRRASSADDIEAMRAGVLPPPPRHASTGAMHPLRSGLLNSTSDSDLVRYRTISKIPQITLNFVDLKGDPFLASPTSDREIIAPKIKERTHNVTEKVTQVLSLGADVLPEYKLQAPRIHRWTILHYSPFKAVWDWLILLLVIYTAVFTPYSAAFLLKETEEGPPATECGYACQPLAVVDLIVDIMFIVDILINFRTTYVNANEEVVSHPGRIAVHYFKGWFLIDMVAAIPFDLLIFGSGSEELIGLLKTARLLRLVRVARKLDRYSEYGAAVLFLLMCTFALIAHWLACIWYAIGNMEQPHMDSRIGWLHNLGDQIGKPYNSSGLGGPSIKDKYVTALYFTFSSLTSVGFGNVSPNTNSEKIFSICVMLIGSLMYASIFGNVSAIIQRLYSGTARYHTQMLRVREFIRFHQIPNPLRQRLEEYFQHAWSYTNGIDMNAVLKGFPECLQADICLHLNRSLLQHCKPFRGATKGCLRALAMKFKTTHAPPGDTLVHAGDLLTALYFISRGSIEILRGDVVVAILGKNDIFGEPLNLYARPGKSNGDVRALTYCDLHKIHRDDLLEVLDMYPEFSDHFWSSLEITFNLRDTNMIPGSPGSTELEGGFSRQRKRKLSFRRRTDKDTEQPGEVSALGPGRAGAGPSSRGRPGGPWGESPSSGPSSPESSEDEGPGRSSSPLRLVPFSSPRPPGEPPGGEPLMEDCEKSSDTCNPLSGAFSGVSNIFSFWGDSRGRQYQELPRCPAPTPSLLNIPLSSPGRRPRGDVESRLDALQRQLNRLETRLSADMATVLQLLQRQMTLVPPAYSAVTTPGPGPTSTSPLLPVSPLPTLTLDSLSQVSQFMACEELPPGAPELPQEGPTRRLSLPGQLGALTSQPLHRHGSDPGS
Sequence of D(2) dopamine receptor (Homo sapiens) (P14416 whole entry): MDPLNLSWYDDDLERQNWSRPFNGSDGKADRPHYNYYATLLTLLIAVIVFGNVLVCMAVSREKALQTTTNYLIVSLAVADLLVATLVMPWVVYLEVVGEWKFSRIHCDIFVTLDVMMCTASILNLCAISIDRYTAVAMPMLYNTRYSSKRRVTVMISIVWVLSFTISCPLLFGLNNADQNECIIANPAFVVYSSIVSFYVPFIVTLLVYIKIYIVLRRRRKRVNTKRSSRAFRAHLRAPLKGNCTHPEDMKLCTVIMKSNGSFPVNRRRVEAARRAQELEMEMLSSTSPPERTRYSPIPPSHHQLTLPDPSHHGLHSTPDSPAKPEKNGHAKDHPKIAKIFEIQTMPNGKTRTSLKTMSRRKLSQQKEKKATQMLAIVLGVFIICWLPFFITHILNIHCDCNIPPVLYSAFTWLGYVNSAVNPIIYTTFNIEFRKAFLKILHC
Sequence of Sodium-dependent serotonin transporter (Homo sapiens) (P31645 whole entry, looked up): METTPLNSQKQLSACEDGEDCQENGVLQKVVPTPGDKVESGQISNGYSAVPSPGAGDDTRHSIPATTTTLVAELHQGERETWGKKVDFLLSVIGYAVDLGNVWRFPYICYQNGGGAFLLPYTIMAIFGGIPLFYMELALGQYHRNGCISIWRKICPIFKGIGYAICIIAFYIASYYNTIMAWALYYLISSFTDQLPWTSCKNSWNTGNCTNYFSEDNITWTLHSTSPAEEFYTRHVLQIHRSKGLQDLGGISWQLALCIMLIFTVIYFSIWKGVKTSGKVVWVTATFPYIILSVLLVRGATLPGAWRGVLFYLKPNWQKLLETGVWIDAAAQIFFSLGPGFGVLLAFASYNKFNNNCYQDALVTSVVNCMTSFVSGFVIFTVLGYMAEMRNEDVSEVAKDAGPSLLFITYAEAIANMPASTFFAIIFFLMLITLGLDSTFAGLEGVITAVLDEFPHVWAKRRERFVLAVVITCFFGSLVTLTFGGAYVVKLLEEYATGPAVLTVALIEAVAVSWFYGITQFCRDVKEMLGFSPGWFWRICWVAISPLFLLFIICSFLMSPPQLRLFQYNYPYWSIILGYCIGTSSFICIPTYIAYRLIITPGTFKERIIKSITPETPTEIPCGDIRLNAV
Sequence of 5-hydroxytryptamine receptor 2A (Homo sapiens) (P28223 whole entry): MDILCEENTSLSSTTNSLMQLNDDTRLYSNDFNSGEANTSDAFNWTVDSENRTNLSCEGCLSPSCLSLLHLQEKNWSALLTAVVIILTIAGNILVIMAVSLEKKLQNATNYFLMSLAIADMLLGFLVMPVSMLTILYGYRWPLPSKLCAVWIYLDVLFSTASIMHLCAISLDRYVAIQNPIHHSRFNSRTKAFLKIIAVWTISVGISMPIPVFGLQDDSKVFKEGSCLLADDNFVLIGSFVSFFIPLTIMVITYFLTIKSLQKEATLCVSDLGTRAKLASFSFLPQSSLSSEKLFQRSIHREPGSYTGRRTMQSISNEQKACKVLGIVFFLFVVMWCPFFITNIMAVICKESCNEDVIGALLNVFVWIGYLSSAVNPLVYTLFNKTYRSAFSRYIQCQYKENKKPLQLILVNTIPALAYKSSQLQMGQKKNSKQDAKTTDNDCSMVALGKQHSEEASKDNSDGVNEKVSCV
Sequence of D(1A) dopamine receptor (Homo sapiens) (P21728 whole entry): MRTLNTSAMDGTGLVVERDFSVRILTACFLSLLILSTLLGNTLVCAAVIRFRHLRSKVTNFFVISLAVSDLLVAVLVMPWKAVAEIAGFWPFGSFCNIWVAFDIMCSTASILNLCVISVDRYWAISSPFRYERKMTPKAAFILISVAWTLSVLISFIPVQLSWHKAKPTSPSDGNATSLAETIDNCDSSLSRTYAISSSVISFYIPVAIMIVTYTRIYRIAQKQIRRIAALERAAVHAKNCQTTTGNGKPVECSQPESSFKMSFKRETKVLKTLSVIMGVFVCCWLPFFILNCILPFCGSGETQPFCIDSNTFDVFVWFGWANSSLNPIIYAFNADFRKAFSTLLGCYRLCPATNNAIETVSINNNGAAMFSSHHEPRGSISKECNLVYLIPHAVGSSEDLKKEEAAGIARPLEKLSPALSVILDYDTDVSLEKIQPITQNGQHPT

solubility kinetic at 24 h [1] [µM] | Ki [16] [µM] | SMILES | IC50 ([6]; Homo sapiens, Jurkat) [µM] | IC50 ([6]; jurkat) | inhibition at 10 µM [12] [%] | IC50 [15] [µM] | further results
45 (≈ 21 µg/mL) |  | CC1(C)CCc2c(C(=O)Nc3cnn([C@H](c4ccccc4)C4CC[S+]([O-])CC4)c3)n[nH]c2C1 (stereo partly specified) | 20 | 30 µM | 3.6 | 83 | Activity [2]: 90%; Activity [3]: 55%; Activity [4]: 62%; Papp [5]: 1.9 ×10⁻⁶ cm/s; logD [7]: 3.6; %max [8]: 98%; fraction unbound [9]: 0.06; concentration at 2.5 h [10]: 80 µM; Activity [11]: 100%; Activity [13]: 95%; Activity [14]: Dose-dependent effect
 | 1.4 | CC12Cc3[nH]nc(C(=O)Nc4cnn(Cc5ccccc5)c4)c3CC1C2 (stereo unspecified) |  |  |  |  | 
 | 0.34 | CN(C)CC[C@@H](c1ccccc1)n1cc(NC(=O)c2n[nH]c3c2CCC(C)(C)C3)cn1 | 4.7 |  | 88 | 6.2 | Activity [17]: 96%; Activity [18]: 96%; Activity [19]: 102%; Activity [20]: 96%; Activity [21]: 88%
4.5 (≈ 1.99 µg/mL) | > 2.5 | CC1(C)CCc2c(C(=O)Nc3cnn([C@@H](CS(C)(=O)=O)c4ccccc4)c3)n[nH]c2C1 | 42 |  |  |  | 
10 (≈ 4.82 µg/mL) |  | CC1(C)CCc2c(C(=O)Nc3cnn([C@H](c4ccccc4)C4CCCCS4(=O)=O)c3)n[nH]c2C1 (stereo partly specified) | > 50 | 33 µM |  |  | 
3.9 (≈ 2.01 µg/mL) |  | C[C@@]12Cc3[nH]nc(C(=O)Nc4cnn([C@H](c5ccccc5)[C@H]5CCCCS5(=O)=O)c4)c3C[C@@H]1C2(F)F | 12 |  | 6.8 | > 100 | Papp [5]: 1.5 ×10⁻⁶ cm/s; logD [7]: 2.8; fraction unbound [9]: 0.03
4.3 (≈ 2.07 µg/mL) |  | CC1(C)CCc2c(C(=O)Nc3cnn([C@H](c4ccccc4)C4CCS(=O)(=O)CC4)c3)n[nH]c2C1 | 29 |  |  |  | 
11 (≈ 5.3 µg/mL) |  | CC1(C)CCc2c(C(=O)Nc3cnn([C@H](c4ccccc4)C4CCCS(=O)(=O)C4)c3)n[nH]c2C1 (stereo partly specified) |  | 44 µM and 20 µM |  |  | 
6.5 (≈ 3.12 µg/mL) |  | C[C@@]12Cc3[nH]nc(C(=O)Nc4cnn([C@H](c5ccccc5)C5CCS(=O)(=O)CC5)c4)c3C[C@@H]1C2 | 29 |  | 34 | > 100 | Papp [5]: 4.4 ×10⁻⁶ cm/s; logD [7]: 3.5; fraction unbound [9]: 0.03
 | 1.8 | CC1(C)CCc2c(C(=O)Nc3cnn(Cc4ccccc4)c3)n[nH]c2C1 |  |  |  |  | 
 |  | CC1(C)CCc2c(C(=O)Nc3cnn([C@H](c4ccccc4)C4CCS(=O)(=O)C4)c3)n[nH]c2C1 (stereo partly specified) | 27 | > 50 µM |  |  | 
 | 1.8 | CC1(C)CCc2c(C(=O)Nc3cnn([C@@H](CCS(C)(=O)=O)c4ccccc4)c3)n[nH]c2C1 | 57 |  |  |  | Ratio Ki [22]: 290
